{"source": "patent US20260231939A1", "about": "“ARTHROPOD CONTROL COMPOSITIONS” (Firmenich SA, priority 2022, published 2026)", "key": {"An. gambiae": {"tested_on": "An. gambiae", "test": "Arm-in-cage test on human volunteers", "format": "in vivo, Anopheles gambiae", "details": "for time during which protection is 100%, i.e. no mosquito landing: 20% in ethanol; for time during which mosquito protection / repellence is >90%: 20% solution in ethanol; for repellent effect: dilution of 5%; for Arm-in-cage repellence, mean of three volunteers: unsaturated δ-lactones at 20%", "description": "(§1) The Arm in the box method was adapted from the WHO Guidelines for efficacy testing of mosquito repellents for human skin (WHO/CDS/NTD/WHOPES/2009.4) and/or based on EU biocide testing guidelines (Guidance on the Biocidal Products Regulation. Vol. II Efficacy—Assessment and Evaluation (Parts B+C), v. 4.0. December 2021). The readiness of 200 hungry female mosquitoes Ae. aegypti or 50 An. gambiae to probe is assessed by inserting the untreated arm of human volunteers into the cage (40×40×40 cm) for 30 seconds (negative control) in order to determine probing activity. Then, the product is applied onto the skin of the forearm of the human volunteer (1 mL per 600 cm^2) and after 5 minutes (Ae. aegypti) or 30 minutes (An. gambiae), this arm is inserted into the cage and exposed for 3 minutes. The assay take place in temperature (27±2° C.) and humidity (80±10% RH) regulated room on three different human volunteers."}, "Anopheles gambiae": {"tested_on": "Anopheles gambiae", "test": "Warm Body assay, mosquito landings on the baited warm body", "format": "in vivo", "details": "Warm Body assay, paired t-test, FIG. 4", "description": "Anopheles gambiae is also a model organism as it is anthropophilic and transmits malaria.\nThe controlling effect according to the present invention was assessed using an adapted Warm Body assay as defined in Kröber T, Kessler S, Frei J, Bourquin M, Guerin P M. 2010. J Am Mosq Control Assoc. 26:381-386. In this in-vitro assay the number of mosquito landing on a warm body, simulating an attractive host treated with the tested stimuli, was measured in order to assess the repellence effect. […]\n(§2) On the sandblasted glass Petri dish covering the warm body (28.3 cm^2), 100 μL of the compounds diluted at different concentrations in ethanol was applied. The number of mosquito landing on the warm body was counted for each stimulus. Number of landings on pure ethanol (solvent) control treatment was used to normalize the data and calculate the percentage of repellence."}, "Ae. aegypti": {"tested_on": "Ae. aegypti", "test": "Arm-in-cage test on human volunteers", "format": "in vivo, Aedes aegypti", "details": "Arm-in-Cage, 20% in ethanol, paired t-test, FIG. 5", "description": "as §1"}, "Ixodes ricinus": {"tested_on": "Ixodes ricinus", "test": "Warm Plate Assay for ticks", "details": "for lower dose at which 100% of repellent efficacy is already reached: in vivo"}, "Aedes aegypti": {"tested_on": "Aedes aegypti", "test": "Warm Body assay, mosquito landings on the baited warm body", "format": "in vivo", "details": "for repellence efficacy compared with the saturated counterpart: Warm Body assay, paired t-test where given", "description": "The controlling effect according to the present invention was assessed using an adapted Warm Body assay as defined in Kröber T, Kessler S, Frei J, Bourquin M, Guerin P M. 2010. J Am Mosq Control Assoc. 26:381-386. In this in-vitro assay the number of mosquito landing on a warm body, simulating an attractive host treated with the tested stimuli, was measured in order to assess the repellence effect.\nThe published protocol has been adapted as the switch from Anopheles gambiae to Ae. aegypti led to a decrease of mosquitoes placed in the tested cage due to the size difference (i.e. 30 mosquitoes instead of 50) and to an increase of lighting since Ae. aegypti is a diurnal mosquitoes (i.e. 150 lux instead of 4 lux).\nas §2"}}, "data": [{"smiles": "CCC=CCC1CCCC(=O)O1", "note": "(centres unmarked) [6-pent-2-enyloxan-2-one]", "values": [{"measurement": "time during which protection is 100%, i.e. no mosquito landing", "setting": "An. gambiae", "value": 4, "unit": "h"}, {"measurement": "time during which mosquito protection / repellence is >90%", "setting": "An. gambiae", "value": 6, "unit": "h"}, {"measurement": "repellent effect", "setting": "An. gambiae; 30 min after application", "value": 100, "unit": "%"}, {"measurement": "repellent effect", "setting": "An. gambiae; 1 h after application", "value": 99.2, "unit": "%"}, {"measurement": "repellent effect", "setting": "An. gambiae; 2 h after application", "value": 67.2, "unit": "%"}, {"measurement": "Arm-in-cage repellence, mean of three volunteers", "setting": "An. gambiae; 30 min", "value": "100% ±"}, {"measurement": "Arm-in-cage repellence, mean of three volunteers", "setting": "An. gambiae; 1 h", "value": "100% ±"}, {"measurement": "Arm-in-cage repellence, mean of three volunteers", "setting": "An. gambiae; 2 h", "value": "100% ±"}, {"measurement": "Arm-in-cage repellence, mean of three volunteers", "setting": "An. gambiae; 3 h", "value": "100% ±"}, {"measurement": "Arm-in-cage repellence, mean of three volunteers", "setting": "An. gambiae; 4 h", "value": "100% ±"}, {"measurement": "Arm-in-cage repellence, mean of three volunteers", "setting": "An. gambiae; 5 h", "value": "99.2% ±"}, {"measurement": "Arm-in-cage repellence, mean of three volunteers", "setting": "An. gambiae; 6 h", "value": "92.3% ±"}, {"measurement": "Arm-in-cage repellence, mean of three volunteers", "setting": "An. gambiae; 7 h", "value": "87.8% ±"}, {"measurement": "repellence efficacy compared with the saturated counterpart", "setting": "Anopheles gambiae", "value": "significantly more efficient"}, {"measurement": "repellence efficacy compared with saturated 6-pentyloxan-2-one", "setting": "Ae. aegypti", "value": "more efficient"}, {"measurement": "Percentage of repellence of ticks on the warm plate", "setting": "Ixodes ricinus; 0.08 mg/mL", "value": 33, "unit": "%"}, {"measurement": "Percentage of repellence of ticks on the warm plate", "setting": "Ixodes ricinus; 0.18 mg/mL", "value": 42, "unit": "%"}, {"measurement": "Percentage of repellence of ticks on the warm plate", "setting": "Ixodes ricinus; 0.40 mg/mL", "value": 75, "unit": "%"}, {"measurement": "Percentage of repellence of ticks on the warm plate", "setting": "Ixodes ricinus; 0.89 mg/mL", "value": 100, "unit": "%"}, {"measurement": "Percentage of repellence of ticks on the warm plate", "setting": "Ixodes ricinus; 2 mg/mL", "value": 100, "unit": "%"}, {"measurement": "Percentage of repellence of ticks on the warm plate", "setting": "Ixodes ricinus; 10 mg/mL", "value": 100, "unit": "%"}, {"measurement": "lower dose at which 100% of repellent efficacy is already reached", "setting": "Ixodes ricinus", "value": 0.089, "unit": "%"}, {"measurement": "repellence efficacy compared with the saturated counterpart", "setting": "Aedes aegypti", "value": "significantly more efficient"}]}, {"smiles": "CC=CCCC1CCCC(=O)O1", "note": "(centres unmarked) [6-pent-3-enyloxan-2-one]", "values": [{"measurement": "time during which protection is 100%, i.e. no mosquito landing", "setting": "An. gambiae", "value": 3, "unit": "h"}, {"measurement": "time during which mosquito protection / repellence is >90%", "setting": "An. gambiae", "value": 8, "unit": "h"}, {"measurement": "Arm-in-cage repellence, mean of three volunteers", "setting": "An. gambiae; 30 min", "value": "100% ±"}, {"measurement": "Arm-in-cage repellence, mean of three volunteers", "setting": "An. gambiae; 1 h", "value": "100% ±"}, {"measurement": "Arm-in-cage repellence, mean of three volunteers", "setting": "An. gambiae; 2 h", "value": "100% ±"}, {"measurement": "Arm-in-cage repellence, mean of three volunteers", "setting": "An. gambiae; 3 h", "value": "100% ±"}, {"measurement": "Arm-in-cage repellence, mean of three volunteers", "setting": "An. gambiae; 4 h", "value": "99.0% ±"}, {"measurement": "Arm-in-cage repellence, mean of three volunteers", "setting": "An. gambiae; 5 h", "value": "98.4% ±"}, {"measurement": "Arm-in-cage repellence, mean of three volunteers", "setting": "An. gambiae; 6 h", "value": "98.3% ±"}, {"measurement": "Arm-in-cage repellence, mean of three volunteers", "setting": "An. gambiae; 7 h", "value": "94.9% ±"}, {"measurement": "Arm-in-cage repellence, mean of three volunteers", "setting": "An. gambiae; 8 h", "value": "94.7% ±"}, {"measurement": "repellence efficacy compared with the saturated counterpart", "setting": "Anopheles gambiae", "value": "significantly more efficient"}, {"measurement": "repellence efficacy compared with saturated 6-pentyloxan-2-one", "setting": "Ae. aegypti", "value": "more efficient"}, {"measurement": "Percentage of repellence of ticks on the warm plate", "setting": "Ixodes ricinus; 0.40 mg/mL", "value": 83, "unit": "%"}, {"measurement": "Percentage of repellence of ticks on the warm plate", "setting": "Ixodes ricinus; 2 mg/mL", "value": 100, "unit": "%"}, {"measurement": "Percentage of repellence of ticks on the warm plate", "setting": "Ixodes ricinus; 10 mg/mL", "value": 100, "unit": "%"}, {"measurement": "lower dose at which 100% of repellent efficacy is already reached", "setting": "Ixodes ricinus", "value": 0.2, "unit": "%"}, {"measurement": "pest or weed control at 16 µg/mL", "setting": "Aedes aegypti; Aedes aegypti, δ-lactones, 0.016 mg/mL, read-out: Percentage of repellence of mosquitoes landing on the warm body", "value": 20, "unit": "%"}, {"measurement": "pest or weed control at 400 µg/mL", "setting": "Aedes aegypti; Aedes aegypti, δ-lactones, 0.4 mg/mL, read-out: Percentage of repellence of mosquitoes landing on the warm body", "value": 98, "unit": "%"}, {"measurement": "pest or weed control at 10000 µg/mL", "setting": "Aedes aegypti; Aedes aegypti, δ-lactones, 10 mg/mL, read-out: Percentage of repellence of mosquitoes landing on the warm body", "value": 100, "unit": "%"}, {"measurement": "repellence efficacy compared with the saturated counterpart", "setting": "Aedes aegypti", "value": "significantly more efficient"}]}]}
